Laboratory results from patent publication US8664226B2, “Compound having 3-heteroarylpyrimidin-4-(3H)-one structure and pharmaceutical preparation containing same” (Kowa Company, Ltd., priority 2009, dated 2014).

How the values were obtained:
[1] = molecular target: T1, angiotensin II type 1 receptor (Oryctolagus cuniculus, UniProt P34976); assay: Angiotensin II antagonistic activity in isolated rabbit blood vessels; conditions: angiotensin II (10 nM)-induced contraction of rabbit thoracic aorta ring
T1 construct: By using a specimen of isolated rabbit blood vessels; from tissue; host or cells: rabbit thoracic aorta ring (New Zealand White, male)
T1 sequence (P34976 1-359): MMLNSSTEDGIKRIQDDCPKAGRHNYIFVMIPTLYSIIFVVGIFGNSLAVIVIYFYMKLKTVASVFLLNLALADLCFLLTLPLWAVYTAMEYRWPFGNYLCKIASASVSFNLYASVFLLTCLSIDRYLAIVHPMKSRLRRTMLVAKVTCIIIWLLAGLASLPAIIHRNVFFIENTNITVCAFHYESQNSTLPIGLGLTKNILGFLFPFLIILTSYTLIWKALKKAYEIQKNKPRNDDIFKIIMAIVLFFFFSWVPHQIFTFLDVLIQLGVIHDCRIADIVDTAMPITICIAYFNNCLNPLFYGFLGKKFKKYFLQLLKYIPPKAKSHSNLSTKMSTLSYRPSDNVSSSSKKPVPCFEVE
Description: By using a specimen of isolated rabbit blood vessels, antagonistic activity of the compounds of the invention against angiotensin II type 1 receptor was estimated from a dose-response curve of angiotensin II-induced blood vessel contraction.
During the measurement, the inside temperature of the magnus bath was maintained at 37° C. and the bath was continuously ventilated with a sufficient amount of mixed gas (95% O2 and 5% CO2). The angiotensin II-induced contraction was converted into a relative value (%) that is based on the angiotensin II (10 nM)-induced contraction in the absence of the compounds of each example. From the concentration-response curve obtained therefrom, 50% inhibition concentration (IC50 value) was calculated by using SAS Preclinical Package Ver5.0 (trade name, manufactured by SAS institute Japan Co., Tokyo, Japan), which is a statistical analysis program.

[2] = molecular target: T2, human PPARγ2 (Homo sapiens, UniProt P37231); assay: PPARγ activation activity, Gal4 chimera luciferase transfection assay using COS7 cells; assay type: cell-based; conditions: for EC50 / Emax: COS7 cells; for EC50: Gal4-human PPARγ2 LBD chimera, luciferase reporter, 16 hours, read-out: EC50; for Emax: COS-7, 16 h, maximum activity strength relative to the maximum activity of rosiglitazone, read-out: % MAX vs Rosiglitazone; for maximum activity compared with telmisartan: maximum PPARγ activity, telmisartan 30 to 50% of rosiglitazone under the same condition
T2 construct: the amino acids 182 to 505 of human PPARγ2; expressed in transfected cells; host or cells: COS7 cells
T2 sequence (P37231 182-505): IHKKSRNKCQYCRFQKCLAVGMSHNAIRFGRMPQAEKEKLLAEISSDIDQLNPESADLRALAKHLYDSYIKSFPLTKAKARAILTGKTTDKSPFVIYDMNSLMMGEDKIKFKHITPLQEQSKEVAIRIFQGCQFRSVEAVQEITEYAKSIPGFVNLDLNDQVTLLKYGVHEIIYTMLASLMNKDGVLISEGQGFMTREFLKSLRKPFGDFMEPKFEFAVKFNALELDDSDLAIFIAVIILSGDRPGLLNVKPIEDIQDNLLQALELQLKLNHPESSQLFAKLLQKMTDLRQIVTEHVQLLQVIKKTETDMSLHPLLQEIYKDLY
T2 sequence (P04386 1-147 partner limits assumed): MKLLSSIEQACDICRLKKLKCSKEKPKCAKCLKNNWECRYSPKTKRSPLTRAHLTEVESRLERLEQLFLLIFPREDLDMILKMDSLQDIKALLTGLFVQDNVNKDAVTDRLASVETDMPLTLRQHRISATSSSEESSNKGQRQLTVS
Description: The agonistic activity of the compounds of the invention on PPARγ was measured based on the transfection assay using COS7 cells (DS Pharma Biomedical Co., Ltd., Osaka, Japan), which are the cell line derived from the kidney of the African green monkey. COS7 cells were cultured under 5% CO2 concentration, and DMEM medium containing 10% fetal bovine serum, glutamic acid, and antibiotics was used as a medium.
As an expression vector, a chimera in which DNA binding domain of Gal4, which is a yeast transcription factor, and ligand binding domain of human PPAR^γ2 are fused, i.e., a fused product between the amino acids 1 to 147 of Gal4 transcription factor and the amino acids 182 to 505 of human PPARγ2, was used. Furthermore, as a reporter vector, a firefly luciferase containing five copies of Gal4 recognition sequence in the promoter region was used. Plasmid transfection to the cells was performed according to a method which uses jetPEI (trade name, manufactured by Funakoshi Co., Ltd., Tokyo, Japan). Furthermore, β-galactosidase expression vector was employed as an internal standard.
After the transfection of the cells, the medium was replaced with a DMEM medium (containing 1% serum) added with the compound, and the cells were further cultured for 16 hours. After that, the luciferase activity and β-galactosidase activity in the cell lysis solution were measured.
For the present test, dimethyl sulfoxide (DMSO) was used for dissolution and dilution of the test compounds, and during the cell treatment, the DMSO concentration in DMEM medium (containing 1% serum) was adjusted to 0.1%. As a positive compound, rosiglitazone (trade name, manufactured by ALEXIS Corporation, Switzerland) was used. […] The 50% effective concentration of the test compound (EC50, 50% effect concentration) was calculated by using SAS Preclinical Package Ver5.0 (trade name, manufactured by SAS institute Japan Co., Tokyo, Japan), which is a statistical analysis program.

SMILES	IC50 [1]	EC50 [2]	Emax [2]	maximum activity compared with telmisartan [2]
CCCCc1nc(C)n(-c2ccc3ccccc3n2)c(=O)c1Cc1ccc(-c2ccccc2-c2nnn[nH]2)cc1 [Example 66, 5-{[2′-(1H-tetrazol-5-yl)biphenyl-4-yl]methyl}-6-butyl-2-methyl-3-(quinolin-2-yl)pyrimidin-4 (3H)-one]	432 nM	820 nM	55.5%	the same or greater than that of telmisartan
CCCCc1nc(C)n(-c2ncccc2F)c(=O)c1Cc1ccc(-c2ccccc2-c2nnn[nH]2)cc1 [Example 4, 5-{[2′-(1H-tetrazol-5-yl)biphenyl-4-yl]methyl}-6-butyl-3-(3-fluoropyridin-2-yl)-2-methylpyrimidin-4(3H)-one]	60 nM	1440 nM	–	–
CCCCc1nc(C)n(-c2ncc(OCCCNS(=O)(=O)C(F)(F)F)cn2)c(=O)c1Cc1ccc(-c2ccccc2-c2nnn[nH]2)cc1 [Example 58, N-{3-{2-{5-{[2′-(1H-tetrazol-5-yl)biphenyl-4-yl]methyl}-4-butyl-2-methyl-6-oxopyrimidin-1 (6H)-yl}pyrimidin-5-yloxy}propyl}-1,1,1-trifluoromethane sulfonamide]	352 nM	1910 nM	–	–
CCCCc1nc(C)n(-c2ncc(OC(C)C)cn2)c(=O)c1Cc1ccc(-c2ccccc2-c2nnn[nH]2)cc1 [Example 23, 5-{[2′-(1H-tetrazol-5-yl)biphenyl-4-yl]methyl}-6-butyl-3-(5-isopropoxypyrimidin-2-yl)-2-methylpyrimidin-4 (3H)-one]	22 nM	890 nM	–	–
CCCCc1nc(C)n(-c2ncc(Br)cn2)c(=O)c1Cc1ccc(-c2ccccc2-c2nnn[nH]2)cc1 [Example 16, 5-{[2′-(1H-tetrazol-5-yl)biphenyl-4-yl]methyl}-3-(5-bromopyrimidin-2-yl)-6-butyl-2-methylpyrimidin-4 (3H)-one]	14 nM	2410 nM	35.5%	–
CCCCc1nc(C)n(-c2ncc(OCC)cn2)c(=O)c1Cc1ccc(-c2ccccc2-c2nnn[nH]2)cc1 [Example 21, 5-{[2′-(1H-tetrazol-5-yl)biphenyl-4-yl]methyl}-6-butyl-3-(5-ethoxypyrimidin-2-yl)-2-methylpyrimidin-4 (3H)-one]	17 nM	1590 nM	–	–
CCCCc1nc(C)n(-c2ncc(OC(C(=O)O)c3ccccc3)cn2)c(=O)c1Cc1ccc(-c2ccccc2-c2nnn[nH]2)cc1 (stereo not drawn) [Example 42, 2-{2-{5-{[2′-(1H-tetrazol-5-yl)biphenyl-4-yl]methyl}-4-butyl-2-methyl-6-oxopyrimidin-1(6H)-yl}pyrimidin-5-yloxy}-2-phenylacetic acid]	2.7 nM	4220 nM	–	–
CCCCc1nc(C)n(-c2ncc(OC3CCCCC3)cn2)c(=O)c1Cc1ccc(-c2ccccc2-c2nnn[nH]2)cc1 [Example 28, 5-{[2′-(1H-tetrazol-5-yl)biphenyl-4-yl]methyl}-6-butyl-3-[5-(cyclohexyloxy)pyrimidin-2-yl]-2-methylpyrimidin-4 (3H)-one]	49 nM	1230 nM	28.9%	–
CCCCc1nc(C)n(-c2ncc(OCCCC(N)=O)cn2)c(=O)c1Cc1ccc(-c2ccccc2-c2nnn[nH]2)cc1 [Example 47, 4-{2-{5-{[2′-(1H-tetrazol-5-yl)biphenyl-4-yl]methyl}-4-butyl-2-methyl-6-oxopyrimidin-1(6H)-yl}pyrimidin-5-yloxy}butanamide]	2.6 nM	80 nM	–	–
CCCCc1nc(C)n(-c2ncc(OCCSC)cn2)c(=O)c1Cc1ccc(-c2ccccc2-c2nnn[nH]2)cc1 [Example 26, 5-{[2′-(1H-tetrazol-5-yl)biphenyl-4-yl]methyl}-6-butyl-2-methyl-3-{5-[2-(methylthio)ethoxy]pyrimidin-2-yl}pyrimidin-4 (3H)-one]	24 nM	3890 nM	–	–
CCCCc1nc(C)n(-c2nccc3ccccc23)c(=O)c1Cc1ccc(-c2ccccc2-c2nnn[nH]2)cc1 [Example 67, 5-{[2′-(1H-tetrazol-5-yl)biphenyl-4-yl]methyl}-6-butyl-3-(isoquinolin-1-yl)-2-methylpyrimidin-4 (3H)-one]	< 10000 nM	740 nM	–	–
CCCCc1nc(C)n(-c2ncccc2Cl)c(=O)c1Cc1ccc(-c2ccccc2-c2nnn[nH]2)cc1 [Example 6, 5-{[2′-(1H-tetrazol-5-yl)biphenyl-4-yl]methyl}-6-butyl-3-(3-chloropyridin-2-yl)-2-methylpyrimidin-4(3H)-one]	24 nM	1690 nM	20.3%	–
CCCCc1nc(C)n(-c2cccc(Br)n2)c(=O)c1Cc1ccc(-c2ccccc2-c2nnn[nH]2)cc1 [Example 8, 5-{[2′-(1H-tetrazol-5-yl)biphenyl-4-yl]methyl}-3-(6-bromopyridin-2-yl)-6-butyl-2-methylpyrimidin-4(3H)-one]	395 nM	880 nM	27.7%	–
CCCCc1nc(C)n(-c2ccc(F)cn2)c(=O)c1Cc1ccc(-c2ccccc2-c2nnn[nH]2)cc1 [Example 5, 5-{[2′-(1H-tetrazol-5-yl)biphenyl-4-yl]methyl}-6-butyl-3-(5-fluoropyridin-2-yl)-2-methylpyrimidin-4(3H)-one]	102 nM	3660 nM	27.6%	–
CCCCc1nc(C)n(-c2cc(C(F)(F)F)ccn2)c(=O)c1Cc1ccc(-c2ccccc2-c2nnn[nH]2)cc1 [Example 10, 5-{[2′-(1H-tetrazol-5-yl)biphenyl-4-yl]methyl}-6-butyl-2-methyl-3-[4-(trifluoromethyl)pyridin-2-yl]pyrimidin-4(3H)-one]	181 nM	3890 nM	–	–
CCCCc1nc(C)n(-c2ncc(OCCCC(=O)NCC)cn2)c(=O)c1Cc1ccc(-c2ccccc2-c2nnn[nH]2)cc1 [Example 49, 4-{2-{5-{[2′-(1H-tetrazol-5-yl)biphenyl-4-yl]methyl}-4-butyl-2-methyl-6-oxopyrimidin-1(6H)-yl}pyrimidin-5-yloxy}-N-ethylbutanamide]	12 nM	70 nM	–	–
CCCCc1nc(C)n(-c2ccon2)c(=O)c1Cc1ccc(-c2ccccc2-c2nnn[nH]2)cc1 [Example 63, 5-{[2′-(1H-tetrazol-5-yl)biphenyl-4-yl]methyl}-6-butyl-3-(isoxazol-3-yl)-2-methylpyrimidin-4 (3H)-one]	193 nM	3670 nM	–	–
CCCCc1nc(C)n(-c2ccc(C)cn2)c(=O)c1Cc1ccc(-c2ccccc2-c2nnn[nH]2)cc1 [Example 2, 5-{[2′-(1H-tetrazol-5-yl)biphenyl-4-yl]methyl}-6-butyl-2-methyl-3-(5-methylpyridin-2-yl)pyrimidin-4(3H)-one]	84 nM	4150 nM	24.1%	–
CCCCc1nc(C)n(-c2ccc(C(F)(F)F)cn2)c(=O)c1Cc1ccc(-c2ccccc2-c2nnn[nH]2)cc1 [Example 11, 5-{[2′-(1H-tetrazol-5-yl)biphenyl-4-yl]methyl}-6-butyl-2-methyl-3-[5-(trifluoromethyl)pyridin-2-yl]pyrimidin-4(3H)-one]	981 nM	1300 nM	48.6%	the same or greater than that of telmisartan
CCCCc1nc(C)n(-c2ncc(OCCC)cn2)c(=O)c1Cc1ccc(-c2ccccc2-c2nnn[nH]2)cc1 [Example 22, 5-{[2′-(1H-tetrazol-5-yl)biphenyl-4-yl]methyl}-6-butyl-2-methyl-3-(5-propoxypyrimidin-2-yl)pyrimidin-4 (3H)-one]	155 nM	590 nM	22.8%	–
